From ChEMBL document CHEMBL4622882, “Discovery of a novel indole pharmacophore for the irreversible inhibition of myeloperoxidase (MPO)” (Bioorg Med Chem, 2020)
≈ marks a conversion by molar mass, not a printed value. Calls of active or inactive are those of the source. No cut-off for these calls is given here.

How the values were obtained:
[1] = Solubility of the compound at pH 6.8; assay type: physicochemical; settings: buffer
[2] = Plasma clearance in mouse at 1 mg/kg, iv; assay type: ADME, organism-based
[3] = target: Voltage-gated inwardly rectifying potassium channel KCNH2 (Homo sapiens, UniProt Q12809); experiment: Inhibition of human ERG
[4] = Cmax in mouse at 10 mg/kg, po; assay type: ADME, organism-based; design: dose 10 mg/kg, route oral; settings: in vivo
[5] = Elimination half life in mouse at 0.5 mg/kg, iv; assay type: ADME, organism-based; settings: in vivo, read-out: beta t1/2 (converted)
[6] = target: T1, Myeloperoxidase (Homo sapiens) (UniProt P05164); experiment: Inhibition of myeloperoxidase (unknown origin) assessed as partition ratio by Amplex red based fluorescence assay
T1 sequence (whole entry): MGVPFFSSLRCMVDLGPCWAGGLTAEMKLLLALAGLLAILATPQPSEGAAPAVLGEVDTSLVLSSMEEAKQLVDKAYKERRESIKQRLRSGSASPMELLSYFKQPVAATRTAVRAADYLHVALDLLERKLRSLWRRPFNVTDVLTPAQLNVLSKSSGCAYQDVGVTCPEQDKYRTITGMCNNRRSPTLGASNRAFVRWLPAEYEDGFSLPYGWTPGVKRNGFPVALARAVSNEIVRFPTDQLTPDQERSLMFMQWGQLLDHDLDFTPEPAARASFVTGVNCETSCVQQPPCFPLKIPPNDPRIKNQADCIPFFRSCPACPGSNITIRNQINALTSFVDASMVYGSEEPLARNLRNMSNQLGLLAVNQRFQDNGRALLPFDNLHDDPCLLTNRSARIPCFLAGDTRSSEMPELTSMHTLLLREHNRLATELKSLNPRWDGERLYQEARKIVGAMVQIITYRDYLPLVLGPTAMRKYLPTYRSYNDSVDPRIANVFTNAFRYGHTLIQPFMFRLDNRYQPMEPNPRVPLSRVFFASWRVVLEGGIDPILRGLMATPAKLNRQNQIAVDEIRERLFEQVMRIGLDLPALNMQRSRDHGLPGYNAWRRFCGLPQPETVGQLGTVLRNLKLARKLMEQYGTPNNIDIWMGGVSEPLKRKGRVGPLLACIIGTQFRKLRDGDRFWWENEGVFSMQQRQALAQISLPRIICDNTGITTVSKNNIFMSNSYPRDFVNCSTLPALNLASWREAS

[7] = target: T1, Myeloperoxidase (Homo sapiens); experiment: Inhibition of myeloperoxidase (unknown origin) assessed as ratio of Kinact to Ki
[8] = Volume of distribution at steady state in mouse at 0.5 mg/kg, iv; assay type: ADME, organism-based; settings: in vivo, read-out: Vdss
Myeloperoxidase [9] = target: T2, Myeloperoxidase (Homo sapiens, UniProt P05164); experiment: Inhibition of human plasma myeloperoxidase
T2 sequence (P05164 whole entry): T1 sequence (whole entry)

Myeloperoxidase [10] = target: T2, Myeloperoxidase; experiment: Inhibition of myeloperoxidase (unknown origin)
[11] = Plasma protein binding in human; assay type: ADME, cell-free; settings: read-out: PPB (converted)
[12] = Oral bioavailability in mouse at 10 mg/kg; assay type: ADME, organism-based; settings: in vivo
[13] = AUCinfinity in mouse at 10 mg/kg, po; assay type: ADME, organism-based; design: dose 10 mg/kg, route oral, time infinity; settings: in vivo
Cytochrome P450 2D6 = Cytochrome P450 2D6 (Homo sapiens, UniProt P10635); experiment: Inhibition of CYP2D6 (unknown origin); assay type: ADME
Cytochrome P450 3A4 = Cytochrome P450 3A4 (Homo sapiens, UniProt P08684); experiment: Inhibition of CYP3A4 (unknown origin); assay type: ADME
Thyroid peroxidase = target: T3, Thyroid peroxidase (Homo sapiens, UniProt P07202); experiment: Inhibition of thyroid peroxidase (unknown origin)
T3 sequence (P07202 whole entry): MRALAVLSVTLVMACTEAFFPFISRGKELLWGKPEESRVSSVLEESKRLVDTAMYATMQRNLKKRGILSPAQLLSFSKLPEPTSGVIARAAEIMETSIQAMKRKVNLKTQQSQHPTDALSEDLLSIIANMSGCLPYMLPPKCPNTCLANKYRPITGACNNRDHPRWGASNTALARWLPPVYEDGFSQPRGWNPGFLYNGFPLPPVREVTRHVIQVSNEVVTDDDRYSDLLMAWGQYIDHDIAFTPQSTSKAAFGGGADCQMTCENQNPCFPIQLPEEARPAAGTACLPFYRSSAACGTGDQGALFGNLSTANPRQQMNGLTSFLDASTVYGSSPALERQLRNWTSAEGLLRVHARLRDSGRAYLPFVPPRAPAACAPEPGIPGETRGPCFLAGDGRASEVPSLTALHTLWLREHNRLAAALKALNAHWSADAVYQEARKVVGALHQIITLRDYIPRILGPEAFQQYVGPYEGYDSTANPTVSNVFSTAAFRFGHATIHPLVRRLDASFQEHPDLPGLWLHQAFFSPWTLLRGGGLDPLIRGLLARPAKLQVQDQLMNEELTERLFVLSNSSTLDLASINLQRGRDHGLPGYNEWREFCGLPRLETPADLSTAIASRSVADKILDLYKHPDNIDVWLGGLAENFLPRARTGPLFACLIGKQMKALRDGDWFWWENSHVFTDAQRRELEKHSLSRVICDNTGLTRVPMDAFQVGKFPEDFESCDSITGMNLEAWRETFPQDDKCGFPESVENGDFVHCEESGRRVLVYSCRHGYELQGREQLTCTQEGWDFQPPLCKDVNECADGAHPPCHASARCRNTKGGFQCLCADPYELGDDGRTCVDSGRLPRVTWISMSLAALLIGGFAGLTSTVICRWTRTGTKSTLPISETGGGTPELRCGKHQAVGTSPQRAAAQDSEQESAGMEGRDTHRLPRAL

[14] = Plasma protein binding in mouse at 0.5 mg/kg, iv or 10 mg/kg, po; assay type: ADME, organism-based; settings: read-out: PPB (converted)
[15] = target: T1, Myeloperoxidase (Homo sapiens); experiment: Irreversible inhibition of human myeloperoxidase assessed as residual activity using H2O2 as substrate at 200 fold dilution and measured after 72 hrs by dialysis method
[16] = target: T1, Myeloperoxidase (Homo sapiens); experiment: Irreversible inhibition of myeloperoxidase (unknown origin) at 1000 fold dilution
[17] = target: T4, Thyroid peroxidase (Homo sapiens) (UniProt P07202); experiment: Irreversible inhibition of thyroid peroxidase (unknown origin) at 1000 fold dilution
T4 sequence (whole entry): T3 sequence (P07202 whole entry)

Armoracia rusticana = experiment: Irreversible inhibition of horseradish peroxidase at 1000 fold dilution
[18] = target: T1, Myeloperoxidase (Homo sapiens); experiment: Irreversible inhibition of human myeloperoxidase using H2O2 as substrate at 200 fold dilution and measured after 72 hrs by dialysis method
[19] = Unbound Cmax in mouse at 10 mg/kg, po; assay type: ADME, organism-based; settings: in vivo
[20] = Volume of distribution at steady state in mouse at 1 mg/kg, iv; assay type: ADME, organism-based; settings: in vivo, read-out: Vdss
[21] = Elimination half life in mouse at 1 mg/kg, iv; assay type: ADME, organism-based; settings: in vivo, read-out: beta t1/2 (converted)
Mus musculus = experiment: Antiinflammatory activity against mouse model of thioglycolate/zymosan A induced peritonitis assessed as decrease in myeloperoxidase activity at 90 mg/kg, po pretreated for 4 hrs followed by zymosan A stimulation by ELISA; assay type: functional; design: scale not given: the % may be the effect or the level left
[22] = Plasma protein binding in mouse at 1mg/kg, iv or 10 mg/kg, po; assay type: ADME, organism-based; settings: read-out: PPB (converted)

Cytochrome P450 2D6, sequence (P10635 whole entry): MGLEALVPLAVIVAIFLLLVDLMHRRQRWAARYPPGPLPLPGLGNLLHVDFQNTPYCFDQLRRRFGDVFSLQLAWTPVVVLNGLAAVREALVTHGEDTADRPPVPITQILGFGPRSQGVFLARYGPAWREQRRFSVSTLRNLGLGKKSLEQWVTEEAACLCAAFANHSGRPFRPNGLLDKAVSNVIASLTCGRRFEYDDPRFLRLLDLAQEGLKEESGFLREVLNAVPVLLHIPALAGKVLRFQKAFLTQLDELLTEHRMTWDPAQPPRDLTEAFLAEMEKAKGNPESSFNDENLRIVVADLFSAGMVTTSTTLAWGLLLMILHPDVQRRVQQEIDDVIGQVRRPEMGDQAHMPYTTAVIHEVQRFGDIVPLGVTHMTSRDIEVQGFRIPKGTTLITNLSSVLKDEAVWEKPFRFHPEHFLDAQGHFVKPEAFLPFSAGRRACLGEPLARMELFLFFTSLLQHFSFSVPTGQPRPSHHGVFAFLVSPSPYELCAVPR
Cytochrome P450 3A4, sequence (P08684 whole entry): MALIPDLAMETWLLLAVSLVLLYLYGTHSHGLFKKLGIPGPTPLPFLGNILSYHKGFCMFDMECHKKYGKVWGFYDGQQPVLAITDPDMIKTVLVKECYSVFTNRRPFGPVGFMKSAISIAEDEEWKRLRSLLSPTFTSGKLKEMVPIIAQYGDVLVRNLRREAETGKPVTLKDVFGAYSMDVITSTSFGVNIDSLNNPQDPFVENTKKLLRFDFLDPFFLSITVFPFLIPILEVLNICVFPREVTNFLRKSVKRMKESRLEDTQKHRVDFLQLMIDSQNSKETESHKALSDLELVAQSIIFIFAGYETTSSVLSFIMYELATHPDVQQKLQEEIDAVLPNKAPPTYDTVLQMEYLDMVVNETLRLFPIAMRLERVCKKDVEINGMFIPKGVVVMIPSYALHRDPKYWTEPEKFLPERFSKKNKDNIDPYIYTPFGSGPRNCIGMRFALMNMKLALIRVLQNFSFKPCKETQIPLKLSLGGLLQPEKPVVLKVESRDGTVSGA
Voltage-gated inwardly rectifying potassium channel KCNH2, sequence (Q12809 whole entry): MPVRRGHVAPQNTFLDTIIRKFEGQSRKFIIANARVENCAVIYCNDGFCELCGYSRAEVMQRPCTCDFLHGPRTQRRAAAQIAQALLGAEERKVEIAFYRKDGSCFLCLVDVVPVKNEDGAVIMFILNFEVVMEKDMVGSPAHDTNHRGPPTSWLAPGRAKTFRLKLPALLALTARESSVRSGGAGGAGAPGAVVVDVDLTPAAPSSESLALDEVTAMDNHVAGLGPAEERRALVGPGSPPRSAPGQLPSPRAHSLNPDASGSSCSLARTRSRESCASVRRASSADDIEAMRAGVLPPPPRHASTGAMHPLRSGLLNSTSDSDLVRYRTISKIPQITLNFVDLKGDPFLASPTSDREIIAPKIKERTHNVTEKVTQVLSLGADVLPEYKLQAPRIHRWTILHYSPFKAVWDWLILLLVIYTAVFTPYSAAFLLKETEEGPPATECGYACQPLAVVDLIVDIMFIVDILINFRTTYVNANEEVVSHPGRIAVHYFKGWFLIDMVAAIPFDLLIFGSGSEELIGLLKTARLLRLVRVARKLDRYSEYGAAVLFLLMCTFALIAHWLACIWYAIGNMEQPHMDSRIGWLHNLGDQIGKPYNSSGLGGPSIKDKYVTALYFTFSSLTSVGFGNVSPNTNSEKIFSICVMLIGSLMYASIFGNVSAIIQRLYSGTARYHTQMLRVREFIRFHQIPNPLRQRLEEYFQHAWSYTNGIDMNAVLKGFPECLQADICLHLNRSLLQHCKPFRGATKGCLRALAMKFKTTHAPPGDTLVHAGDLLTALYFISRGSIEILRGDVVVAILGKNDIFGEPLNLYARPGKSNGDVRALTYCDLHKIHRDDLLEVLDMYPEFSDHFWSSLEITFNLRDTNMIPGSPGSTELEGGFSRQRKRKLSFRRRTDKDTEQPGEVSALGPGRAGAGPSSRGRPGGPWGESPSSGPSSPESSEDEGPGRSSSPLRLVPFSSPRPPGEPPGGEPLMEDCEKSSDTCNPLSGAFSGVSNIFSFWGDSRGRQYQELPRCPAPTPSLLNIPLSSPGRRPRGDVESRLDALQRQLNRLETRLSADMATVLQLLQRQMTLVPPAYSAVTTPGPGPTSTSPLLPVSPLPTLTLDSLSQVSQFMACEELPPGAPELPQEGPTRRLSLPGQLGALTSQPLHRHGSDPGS

SMILES	solubility [1] [µM]	IC50 [3] [nM]	Ratio [6]	Ratio [7] [M⁻¹ s⁻¹]	IC50 (Myeloperoxidase [9]) [nM]	IC50 (Myeloperoxidase [10]) [nM]	IC (Cytochrome P450 2D6) [µM]	IC (Cytochrome P450 3A4) [µM]	IC50 (Thyroid peroxidase) [nM]	also measured
N[C@@H]1CC[C@@H](n2cc(-c3ccc4cc[nH]c4c3)c(C(F)(F)F)n2)C1	587 (≈ 196 µg/mL)	17000	3.1	230000	170	70	> 50	34	> 30000	clearance [2]: 16.1 mL/min/kg; Cmax [4]: 1990 nM; half-life [5]: 4.5 h; Vd [8]: 2.1 L/kg; fraction unbound [11]: 0.034; bioavailability [12]: 40%; AUC(0-inf) [13]: 22.9 µM·h; fraction unbound [14]: 0.027
Nc1ncnc2c1c(-c1ccc3cc[nH]c3c1)cn2-c1ccc(OCCNCCO)cc1	46 (≈ 19.7 µg/mL)	2800	141	23000		220	> 50	> 50	30000	Activity [15]: > 95%; inhibition [16]: Active; inhibition [17]: inactive; inhibition (Armoracia rusticana): inactive
N[C@@H](c1ccc(-n2cc(-c3ccc4cc[nH]c4c3)c(C(F)(F)F)n2)cc1)C(F)(F)F	21 (≈ 8.91 µg/mL)	> 30000	17	122000	18000	420	21	17	> 30000	
CN(C)Cc1ccc(-n2cc(-c3ccc4cc[nH]c4c3)c3c(Cl)ccnc32)cc1	21 (≈ 8.42 µg/mL)	1700	3.7	210000	2600	120	21	17	5300	inhibition [18]: Active; clearance [2]: 64.7 mL/min/kg; Cmax [4]: 502 nM; fCmax [19]: 2 nM; Vd [20]: 9.8 L/kg; bioavailability [12]: 61%; AUC(0-inf) [13]: 2.49 µM·h; half-life [21]: 2.6 h; Activity (Mus musculus): 50%; fraction unbound [22]: 0.004
NCc1ccc(-n2cc(-c3ccc4cc[nH]c4c3)c(C(F)(F)F)n2)cc1	62 (≈ 22.1 µg/mL)	4000	0.4	430000	360	30	1.4	3.8	> 30000	
NC[C@H]1C[C@H](n2cc(-c3ccc4cc[nH]c4c3)c(C(F)(F)F)n2)C1			6.7			170			> 30000	
O=C(O)CCn1cc(-c2ccc3cc[nH]c3c2)c(C(F)(F)F)n1			> 200			5200				
NC(=O)Cn1cc(-c2ccc3cc[nH]c3c2)c(C(F)(F)F)n1			> 200			2000			> 30000	
NC(=O)CCn1cc(-c2ccc3cc[nH]c3c2)c(C(F)(F)F)n1			> 200			4200			> 30000	
FC(F)(F)c1nn(-c2ccc(Cc3nc[nH]n3)cc2)cc1-c1ccc2cc[nH]c2c1	11 (≈ 4.49 µg/mL)	> 30000	12	106000	23000	250	0.5	6.9	5900	
NCCCCn1cc(-c2ccc3cc[nH]c3c2)c(C(F)(F)F)n1	73 (≈ 23.5 µg/mL)	1900	42	61000	900	330	43	> 50	> 30000	
